Test results as given in patent EP1932852B1, “Novel taxane related peptides and uses thereof” (Campiani, Giuseppe, priority 2006, dated 2008).

Experiments:
[1] = test system: mitochondria freshly isolated from A2780wt cells; experiment: Flow cytometric assessment of Δψm in freshly isolated mitochondria (Rhodamine 123); type: cell-based, human; details: PTX 10 µM, 60 min, without treatment 18%
Description: (§1) Cell culture procedures and cell lines have been elsewhere described (Ferlini et al., 2003). Mitochondria were freshly isolated and mitochondrial transmembrane potential Δψm was assessed as previously described (Ferlini et al., 1995), using Rhodamine 123 (Molecular Probes) and a Facscan flow cytometer (Becton Dickinson).
(§2) Here, they used the human ovary A2780 cancer cell line and its counterpart TC1 (Ferlini et al., 2003) with acquired PTX-resistance. […] Since the homology between the Bcl-2 and Bcl-xL is high, with the exception of the loop domain, TC1 cells were stably transfected with a construct in which the loop domain of Bcl-2 (aa 35-91) was deleted and replaced with a linker sequence of four alanine residues, as previously described by Chang et al. (Chang et al., 1997). These cells are thereafter referred to as TC1 Bcl-2Δ. Mitochondria were freshly isolated from these cells and were treated with PTX (10 µM). This concentration has a clinical relevance since it corresponds to the intracellular concentration achievable in patients. (Andre et al., 2000).
(§3) The status of mitochondrial transmembrane potential (Δψm) was then monitored using the cationic fluorochrome Rhodamine 123 and flow cytometry. Results of these experiments are depicted in Fig. 1B. […] In fact, as reported in Fig. 1B the percentage of mitochondria with full leakage of the Δψm pass from 18% to 78%. […] In TC1-Bcl-2 cells, the sensitivity to PTX treatment was restored and again the vast majority of treated mitochondria were able to open the PTPC upon PTX treatment and dissipate the Δψm (from 8% to 82%). […] Taken together, these findings indicate that PTX is able to convert Bcl-2 in a factor proficient to activate the opening of PTPC and that such activity requires the presence of Bcl-2 loop domain, since it is not longer detectable in mitochondria from TC1-Bcl-2Δ cells.

[2] = test system: mitochondria freshly isolated from TC1 cells; experiment: as above; type: cell-based, human; details: PTX 10 µM, 60 min; mitochondria from TC1 (undetectable Bcl-2); without treatment 16%
Description: as §1, §2, §3

[3] = test system: mitochondria freshly isolated from TC1-Bcl-2 cells; experiment: as above; type: cell-based, human; details: PTX 10 µM, 60 min; mitochondria from TC1-Bcl-2; without treatment 8%
Description: as §1, §2, §3

[4] = test system: mitochondria freshly isolated from TC1-Bcl-2Δ cells; experiment: as above; type: cell-based, human; details: PTX 10 µM, 60 min; mitochondria from TC1-Bcl-2Δ; without treatment 14%
Description: as §1, §2, §3

Bcl2/Nur77 complex = molecular target: T1, Bcl2/Nur77 complex (Homo sapiens, UniProt P10415); experiment: Co-immunoprecipitation of Nur77 with Bcl-2 in the presence of PTX; type: binding; details: whole cell lysates from A2780, PTX 10 µM, 2 h at 4 °C
T1 construct: endogenous in cells; host or cells: A2780 (human ovarian cancer) whole cell lysate
T1 sequence (P10415 whole entry, one chain of several): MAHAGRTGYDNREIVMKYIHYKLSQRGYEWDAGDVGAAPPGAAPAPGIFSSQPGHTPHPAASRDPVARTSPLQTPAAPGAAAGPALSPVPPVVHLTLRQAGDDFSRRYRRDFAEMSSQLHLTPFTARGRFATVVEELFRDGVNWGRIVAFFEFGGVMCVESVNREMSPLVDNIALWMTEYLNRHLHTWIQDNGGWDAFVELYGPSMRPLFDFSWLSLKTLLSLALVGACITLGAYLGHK
Description: (§4) Cells, harvested in cold phosphate-buffered saline, were extracted for 30 min at 4 °C in lysis buffer (50 mM Tris-HCl, pH 7.4, 150 mM NaCl, 1% NP-40) containing 1mM DTT, protease inhibitor cocktail (Roche) and phosphatase inhibitors (50 mM NaF, 0.2 mM Na3VO4). Mitochondria isolation was performed as previously described (Ferlini et al., 2003). After centrifugation, supernatants (300 µg from total lysates and 100 µg from mitochondrial extracts) were immunoprecipitated at 4 °C overnight in lysis buffer by adding protein A/G plus-agarose beads (Santa Cruz Biotechnology) after 2 h of incubation with 2 µg of the following antibodies: anti-Bcl-2 (N19, Santa Cruz Biotechnology), anti-Bcl-2 (clone 124, Dako), anti-Bcl-2 BH3 domain (Abgent), anti-Nur77 (Imgenex), anti-β-tubulin (H235, Santa Cruz Biotechnology), anti-class III β-tubulin polyclonal antibody (Covance) and isotype-matched non-immune IgG (Sigma) as control. […]
The significant similarity between the binding sites of the two PTX target proteins resulted from molecular modeling studies prompted the authors to investigate the possibility that PTX is a peptidomimetic compound. […] In order to assess this hypothesis, recombinant histidine-tagged Nur77 was purified and the interaction with in vitro produced Bcl-2 and Bcl-2Δ labeled with ^35S-methionine was analyzed. […]

Bcl-2 = experiment: Western blot of Bcl-2 in mitochondrial extracts (mobility shift); type: cell-based, human; details: A2780wt treated 24h with PTX 1 µM
Description: as §4
It has already been shown that Bcl-2 is phosphorylated following exposure to PTX and that phosphorylation occurs in the disordered loop of Bcl-2 (Haldar et al., 1996; Fang et al., 1998). In order to investigate if Nur77, like PTX, is able to induce Bcl-2 mobility shifts, A2780 and TC1 cell lines overexpressing Nur77 (thereafter referred to as A2780Nur77 and TC1Nur77) were established and Bcl-2 status was analysed. […]

SMILES: CC(=O)O[C@H]1C(=O)[C@@]2(C)[C@H]([C@H](OC(=O)c3ccccc3)[C@]3(O)C[C@H](OC(=O)[C@H](O)[C@@H](NC(=O)c4ccccc4)c4ccccc4)C(C)=C1C3(C)C)[C@]1(OC(C)=O)CO[C@@H]1C[C@@H]2O [PTX, paclitaxel]
- percentage of mitochondria with full leakage of the Δψm [1]: 78%
- number of mitochondria with the leakage of Δψm [2]: 26%
- mitochondria that open the PTPC and dissipate the Δψm [3]: 82%
- mitochondria with changed Δψm status [4]: 20%
- displacement of Nur77 from Bcl-2 (Bcl2/Nur77 complex): able to displace Nur77 from Bcl-2
- slow mobility band of Bcl-2 (Bcl-2): slow mobility band was detectable
